Test results reported in patent US6124269A, “2-Halo-6-O-substituted ketolide derivatives” (priority 1998, dated 2000).
Converted amounts (≈) assume the structure as drawn.

Legend:
Type in all cases: cell-based
[1] = tested on: Staphylococcus aureus ATCC 6538P; assay: In vitro agar dilution MIC, organism code AA; conditions: Table 1B, unit assumed
Description: (§1) Representative compounds of the present invention were assayed in vitro for antibacterial activity as follows: Twelve petri dishes containing successive aqueous dilutions of the test compound mixed with 10 mL of sterilized Brain Heart Infusion (BHI) agar (Difco 0418-01-5) were prepared. Each plate was inoculated with 1:100 (or 1:10 for slow-growing strains, such as Micrococcus and Streptococcus) dilutions of up to 32 different microorganisms, using a Steers replicator block. The inoculated plates were incubated at 35-37° C. for 20 to 24 hours. In addition, a control plate, using BHI agar containing no test compound, was prepared and incubated at the beginning and end of each test.
(§2) An additional plate containing a compound having known susceptibility patterns for the organisms being tested and belonging to the same antibiotic class as the test compound was also prepared and incubated as a further control, as well as to provide test-to-test comparability.
(§3) After incubation, each plate was visually inspected. The minimum inhibitory concentration (MIC) was defined as the lowest concentration of drug yielding no growth, a slight haze, or sparsely isolated colonies on the inoculum spot as compared to the growth control.

[2] = tested on: Staphylococcus aureus A5177; assay: In vitro agar dilution MIC, organism code BB; conditions: Table 1B, in µg/mL (unit assumed)
Description: as §1, §2, §3

[3] = tested on: Staphylococcus aureus A-5278; assay: In vitro agar dilution MIC, organism code CC; conditions: Table 1B, unit assumed
Description: as §1, §2, §3

[4] = tested on: Staphylococcus aureus CMX 642A; assay: In vitro agar dilution MIC, organism code DD; conditions: Table 1B, unit assumed
Description: as §1, §2, §3

[5] = tested on: Staphylococcus aureus NCTC10649M; assay: In vitro agar dilution MIC, organism code EE; conditions: Table 1B, unit assumed
Description: as §1, §2, §3

[6] = tested on: Staphylococcus aureus CMX 553; assay: In vitro agar dilution MIC, organism code FF; conditions: Table 1B, unit assumed
Description: as §1, §2, §3

[7] = tested on: Staphylococcus aureus 1775; assay: In vitro agar dilution MIC, organism code GG; conditions: Table 1B, unit assumed
Description: as §1, §2, §3

[8] = tested on: Staphylococcus epidermidis 3519; assay: In vitro agar dilution MIC, organism code HH; conditions: Table 1B, in µg/mL (unit assumed)
Description: as §1, §2, §3

[9] = tested on: Enterococcus faecium ATCC 8043; assay: In vitro agar dilution MIC, organism code II; conditions: Table 1B, unit assumed
Description: as §1, §2, §3

[10] = tested on: Streptococcus bovis A-5169; assay: In vitro agar dilution MIC, organism code JJ; conditions: Table 1B, unit assumed
Description: as §1, §2, §3

[11] = tested on: Streptococcus agalactiae CMX 508; assay: In vitro agar dilution MIC, organism code KK; conditions: Table 1B, unit assumed
Description: as §1, §2, §3

[12] = tested on: Streptococcus pyogenes EES61; assay: In vitro agar dilution MIC, organism code LL; conditions: Table 1B, unit assumed
Description: as §1, §2, §3

[13] = tested on: Streptococcus pyogenes 930; assay: In vitro agar dilution MIC, organism code MM; conditions: Table 1B, unit assumed
Description: as §1, §2, §3

[14] = tested on: Streptococcus pyogenes PIU 2548; assay: In vitro agar dilution MIC, organism code NN; conditions: Table 1B, unit assumed
Description: as §1, §2, §3

[15] = tested on: Micrococcus luteus ATCC 9341; assay: In vitro agar dilution MIC, organism code OO; conditions: Table 1B, unit assumed
Description: as §1, §2, §3

[16] = tested on: Micrococcus luteus ATCC 4698; assay: In vitro agar dilution MIC, organism code PP; conditions: Table 1B, in µg/mL (unit assumed)
Description: as §1, §2, §3

[17] = tested on: Escherichia coli JUHL; assay: In vitro agar dilution MIC, organism code QQ; conditions: Table 1B, in µg/mL (unit assumed)
Description: as §1, §2, §3

[18] = tested on: Escherichia coli SS; assay: In vitro agar dilution MIC, organism code RR; conditions: Table 1B, in µg/mL (unit assumed)
Description: as §1, §2, §3

[19] = tested on: Escherichia coli DC-2; assay: In vitro agar dilution MIC, organism code SS; conditions: Table 1B, unit assumed
Description: as §1, §2, §3

[20] = tested on: Candida albicans CCH 442; assay: In vitro agar dilution MIC, organism code TT; conditions: Table 1B, unit assumed
Description: as §1, §2, §3

[21] = tested on: Mycobacterium smegmatis ATCC 114; assay: In vitro agar dilution MIC, organism code UU; conditions: Table 1B, in µg/mL (unit assumed)
Description: as §1, §2, §3

[22] = tested on: Nocardia asteroides ATCC 9970; assay: In vitro agar dilution MIC, organism code VV; conditions: Table 1B, in µg/mL (unit assumed)
Description: as §1
as §2, with “comparability. Erythromycin A was used for this purpose.” for “comparability.”
as §3

[23] = tested on: Haemophilis influenzae DILL AMP R; assay: In vitro agar dilution MIC, organism code WW; conditions: Table 1B, unit assumed
Description: as §1, §2, §3

[24] = tested on: Streptococcus pneumoniae ATCC 6303; assay: In vitro agar dilution MIC, organism code XX; conditions: Table 1B, unit assumed
Description: as §1, §2, §3

[25] = tested on: Streptococcus pneumoniae GYR 1171; assay: In vitro agar dilution MIC, organism code YY; conditions: Table 1B, unit assumed
Description: as §1, §2, §3

[26] = tested on: Streptococcus pneumoniae 5979; assay: In vitro agar dilution MIC, organism code ZZ; conditions: Table 1B, unit assumed
Description: as §1, §2, §3

[27] = tested on: Streptococcus pneumoniae 5649; assay: In vitro agar dilution MIC, organism code ZZA; conditions: Table 1B, unit assumed
Description: as §1, §2, §3

CC[C@H]1OC(=O)[C@@](C)(F)C(=O)[C@H](C)[C@@H](O[C@@H]2O[C@H](C)C[C@H](N(C)C)[C@H]2O)[C@](C)(OC/C=C/c2cnc3ccc([N+](=O)[O-])cc3c2)C[C@@H](C)C(=O)[C@H](C)[C@H]2NC(=O)O[C@@]21C [Example 6]
MIC [1]: 0.05 µg/mL (≈ 0.0603 µM) | MIC [2]: 0.05 | MIC [3]: 100 µg/mL (≈ 121 µM) | MIC [4]: 0.05 µg/mL (≈ 0.0603 µM) | MIC [5]: 0.1 µg/mL (≈ 0.121 µM) | MIC [6]: 0.05 µg/mL (≈ 0.0603 µM) | MIC [7]: 100 µg/mL (≈ 121 µM) | MIC [8]: 0.05 | MIC [9]: 0.05 µg/mL (≈ 0.0603 µM) | MIC [10]: 0.01 µg/mL (≈ 0.0121 µM) | MIC [11]: 0.02 µg/mL (≈ 0.0241 µM) | MIC [12]: ≤ 0.005 µg/mL | MIC [13]: 0.39 µg/mL (≈ 0.47 µM) | MIC [14]: 0.05 µg/mL (≈ 0.0603 µM) | MIC [15]: 0.01 µg/mL (≈ 0.0121 µM) | MIC [16]: 0.05 | MIC [17]: 25 | MIC [18]: 0.05 | MIC [19]: 25 µg/mL (≈ 30.2 µM) | MIC [20]: 100 µg/mL (≈ 121 µM) | MIC [21]: 0.1 | MIC [22]: 0.02 | MIC [23]: 2 µg/mL (≈ 2.41 µM) | MIC [24]: ≤ 0.004 µg/mL | MIC [25]: ≤ 0.004 µg/mL | MIC [26]: 1 µg/mL (≈ 1.21 µM) | MIC [27]: 0.125 µg/mL (≈ 0.151 µM)

CC[C@H]1OC(=O)[C@@](C)(F)C(=O)[C@H](C)[C@@H](O[C@@H]2O[C@H](C)C[C@H](N(C)C)[C@H]2O)[C@](C)(OC/C=C/c2cnc3ccc(N(C)C)cc3c2)C[C@@H](C)C(=O)[C@H](C)[C@H]2NC(=O)O[C@@]21C [Example 13]
MIC [1]: 0.2 µg/mL (≈ 0.242 µM) | MIC [2]: 0.2 | MIC [3]: > 100 µg/mL | MIC [4]: 0.2 µg/mL (≈ 0.242 µM) | MIC [5]: 0.2 µg/mL (≈ 0.242 µM) | MIC [6]: 0.2 µg/mL (≈ 0.242 µM) | MIC [7]: > 100 µg/mL | MIC [8]: 0.2 | MIC [9]: 0.1 µg/mL (≈ 0.121 µM) | MIC [10]: 0.02 µg/mL (≈ 0.0242 µM) | MIC [11]: 0.02 µg/mL (≈ 0.0242 µM) | MIC [12]: 0.05 µg/mL (≈ 0.0605 µM) | MIC [13]: 0.78 µg/mL (≈ 0.943 µM) | MIC [14]: 0.2 µg/mL (≈ 0.242 µM) | MIC [15]: 0.02 µg/mL (≈ 0.0242 µM) | MIC [16]: 0.2 | MIC [17]: 50 | MIC [18]: 0.78 | MIC [19]: 100 µg/mL (≈ 121 µM) | MIC [20]: > 100 µg/mL | MIC [21]: 0.78 | MIC [22]: 0.05 | MIC [23]: 8 µg/mL (≈ 9.67 µM) | MIC [24]: 0.06 µg/mL (≈ 0.0726 µM) | MIC [25]: 0.06 µg/mL (≈ 0.0726 µM) | MIC [26]: 1 µg/mL (≈ 1.21 µM) | MIC [27]: 0.5 µg/mL (≈ 0.605 µM)

CC[C@H]1OC(=O)[C@@](C)(F)C(=O)[C@H](C)[C@@H](O[C@@H]2O[C@H](C)C[C@H](N(C)C)[C@H]2O)[C@](C)(OC/C=C/c2cnc3ccc(NC(=O)OC(C)(C)C)cc3c2)C[C@@H](C)C(=O)[C@H](C)[C@H]2NC(=O)O[C@@]21C [Example 8]
MIC [1]: 0.39 µg/mL (≈ 0.434 µM) | MIC [2]: 0.39 | MIC [3]: > 100 µg/mL | MIC [4]: 0.39 µg/mL (≈ 0.434 µM) | MIC [5]: 0.39 µg/mL (≈ 0.434 µM) | MIC [6]: 0.39 µg/mL (≈ 0.434 µM) | MIC [7]: > 100 µg/mL | MIC [8]: 0.39 | MIC [9]: 0.2 µg/mL (≈ 0.222 µM) | MIC [10]: 0.05 µg/mL (≈ 0.0556 µM) | MIC [11]: 0.05 µg/mL (≈ 0.0556 µM) | MIC [12]: 0.05 µg/mL (≈ 0.0556 µM) | MIC [13]: 12.5 µg/mL (≈ 13.9 µM) | MIC [14]: 0.39 µg/mL (≈ 0.434 µM) | MIC [15]: 0.05 µg/mL (≈ 0.0556 µM) | MIC [16]: 0.39 | MIC [17]: > 100 | MIC [18]: 6.2 | MIC [19]: > 100 µg/mL | MIC [20]: > 100 µg/mL | MIC [21]: 0.78 | MIC [22]: 0.78 | MIC [23]: 16 µg/mL (≈ 17.8 µM) | MIC [24]: 0.06 µg/mL (≈ 0.0667 µM) | MIC [25]: 0.06 µg/mL (≈ 0.0667 µM) | MIC [26]: 16 µg/mL (≈ 17.8 µM) | MIC [27]: 1 µg/mL (≈ 1.11 µM)

CC[C@H]1OC(=O)C(C)(F)C(=O)[C@H](C)[C@@H](O[C@@H]2O[C@H](C)C[C@H](N(C)C)[C@H]2O)[C@](C)(OCC#Cc2ccc(-c3cccs3)s2)C[C@@H](C)C(=O)[C@H](C)[C@H]2NC(=O)O[C@@]21C (stereo partly drawn) [Example 28]
MIC [1]: 0.05 µg/mL (≈ 0.061 µM) | MIC [2]: 0.1 | MIC [3]: > 100 µg/mL | MIC [4]: 0.1 µg/mL (≈ 0.122 µM) | MIC [5]: 0.2 µg/mL (≈ 0.244 µM) | MIC [6]: 0.1 µg/mL (≈ 0.122 µM) | MIC [7]: > 100 µg/mL | MIC [8]: 0.1 | MIC [9]: 0.05 µg/mL (≈ 0.061 µM) | MIC [10]: 0.01 µg/mL (≈ 0.0122 µM) | MIC [11]: 0.02 µg/mL (≈ 0.0244 µM) | MIC [12]: 0.02 µg/mL (≈ 0.0244 µM) | MIC [13]: 0.78 µg/mL (≈ 0.952 µM) | MIC [14]: 0.2 µg/mL (≈ 0.244 µM) | MIC [15]: 0.02 µg/mL (≈ 0.0244 µM) | MIC [16]: 0.05 | MIC [17]: 100 | MIC [18]: 0.78 | MIC [19]: 100 µg/mL (≈ 122 µM) | MIC [20]: > 100 µg/mL | MIC [21]: 0.39 | MIC [22]: 0.02 | MIC [23]: 2 µg/mL (≈ 2.44 µM) | MIC [24]: ≤ 0.004 µg/mL | MIC [25]: ≤ 0.004 µg/mL | MIC [26]: 16 µg/mL (≈ 19.5 µM) | MIC [27]: 0.25 µg/mL (≈ 0.305 µM)
